Test results reported in patent US20200289521A1, “USE OF VITAMIN K IN COMBINATION WITH ANTICOAGULANTS” (KAYDENCE PHARMA AS, priority 2019, published 2020).

Assays:
VSMCs [1] = assay: Hypoxia (CoCl2) induced oxidative stress in VSMCs (DCFDA); type: cell-based
Description: This study was performed to determine whether intracellular oxidative stress in VSCMs is derived from mitochondrial dysfunction. To perform this study, VSMCs were incubated with cobalt chloride, a known stabilizer of HIF1a. Cobalt chloride binding to HIF1a prevents the degradation of HIF1a and thus results in a cellular hypoxia state. HIF1a has been implicated in cancer biology as well as a number of other pathophysiologies, specifically in areas of vascularization and angiogenesis, energy metabolism, cell survival, and tumor invasion. Under normal circumstances, after injury, HIF1a is degraded by the enzyme prolyl hydroxylase (PHD). The continued up-regulation of HIF1a (mimicked by cobalt chloride) promotes tumor growth and metastasis through its role in initiating angiogenesis and regulating cellular metabolism to overcome hypoxia. Hypoxia promotes apoptosis in both normal and tumor cells. Additionally, hypoxia generates significant intracellular oxidative stress.
To perform the study, VSMCs (10,000 cells/well) were plated in a 96-well plate and left to adhere overnight. Next, the medium was changed to a medium supplemented with 50 μM CoCl2 for 19 hours. The next day, cells were washed and incubated for 1 hour with 20 μM DCFDA in the presence of a vehicle (solvent for CoCl2 and vitamin K2 (MK-7)/UQ10), 10 μM vitamin K2 (MK-7), or 10 μM UQ10 in medium. The medium was then changed to a medium supplemented with vehicle, vitamin K2 (MK-7)/UQ10, or CoCl2, and fluorescent was measured for 6 hours. Fluorescence intensity was normalized for cell count.

VSMCs [2] = assay: ATP increase in VSMCs, 48 hours, with CoCl2 arm (luminescence); type: cell-based
Description: (§1) This study was performed to further investigate the origin of ATP production that is influenced by vitamin K2 (MK-7). To perform this study, VSCMs (5000 cells/well) were plated in 96-well plates and left to adhere overnight. Next, cells were incubated for 48 hours with either vehicle, CoCl2 (100 μM), vitamin K2 (MK-7) (10 μM), or UQ10 (10 μM). Hoechst was added to correct for cell number (1 μg/mL). Next, ATP was measured using mammalian lysis buffer for 5 minutes, after which 50 μL ATP substrate solution was added to the wells and incubated for 10 minutes in a dark environment. Finally, medium was transferred to a white plate to measure luminescence.

[3] = system: whole-blood thrombogenicity; assay: T-TAS Total Thrombus-formation Analysis of whole blood from treated Sprague-Dawley rats; type: in vivo; conditions: for AUC: area under flow pressure curve for 30 min, dabigatran 7.5, rivaroxaban 5.0, MK-7 1.5 mg/kg/day; for AUC / OT (time, min) / T10 (time, min): two weeks in diet; for OT (time, min) / T10 (time, min): dabigatran 7.5, rivaroxaban 5.0, vitamin K2 (MK-7) 1.5 mg/kg/day
Description: (§2) This experiment was conducted in order to evaluate the effects of vitamin K2 (MK-7) on the anticoagulant activity of the new oral anticoagulants (NOAC) rivaroxaban and dabigatran using the T-TAS Total Thrombus-formation Analysis System. The T-TAS Total Thrombus-formation Analysis System is a microchip-based flow chamber system capable of evaluating whole-blood thrombogenicity. It is a useful tool in monitoring the efficacy of anticoagulants on thrombus formation and predicting the risk of bleeding complications. To perform the study, 45 wild-type male Sprague-Dawley and 45 transgenic male Ren-2 rats [TGR(mREN-2)27] at the age of 10-11 weeks at the beginning of the treatment period were purchased from animal facility IKEM-CEM Institute of Clinical and Experimental Medicine (Prague, Czech Republic). All animals in the experiment were housed in individually ventilated cages (2-3 rats per cage) and kept in the animal rooms of JCET at a relative humidity of 55±10%, a temperature of 22±2° C., and a light cycle of 7 AM to 7 PM. The rats had free access to food and water. After delivery, animals were randomly divided into 10 experimental groups (5 or 10 rats per group), as indicated below in Table 1. Four days before the start of the treatment, the first part of animals' body weight and food intake was measured in selected representative three cages (rats n=9) to calculate the appropriate amount of tested compounds required for addition to the diet to obtain the dosing indicated in Table 1. It was estimated that food intake was approximately 30 g of chow per rat per day. The animals were fed for two weeks with AIN-93G diet supplemented with rivaroxaban or dabigatran with/without Vitamin K2 (MK-7), as indicated in Table 1. The animals were then anesthetized in order to draw blood samples for further analysis. The body mass of the rats was measured at the beginning and at the end of treatment. At the beginning and at the end of treatment, the food intake per day was measured in representative group of animals to monitor the daily dosing of tested compounds (per kg of body mass). The thrombus formation in vitro was measured in whole blood using a microchip-based flow chamber system according to manufacturers' protocol (Total Thrombus-formation Analyser System, T-TAS; Fujimori Kogyo Co., Ltd., Tokyo, Japan). For the analysis, citrated whole blood (480 μl) was mixed with 20 μl of 300 mM CaCl2 solution containing 1.25 mg/ml CTI (Corn Trypsin Inhibitor). […] The obtained flow pressure pattern for each sample was used to analyze thrombus formation based on the following estimated parameters: […]

[4] = system: whole-blood thrombogenicity; assay: T-TAS Total Thrombus-formation Analysis of whole blood from treated TGR rats; type: in vivo, transgenic Ren-2 rats [TGR(mREN-2)27]; conditions: for AUC: area under flow pressure curve for 30 min, dabigatran 7.5, rivaroxaban 5.0, MK-7 1.5 mg/kg/day; for AUC / OT (time, min) / T10 (time, min): two weeks in diet; for OT (time, min) / T10 (time, min): dabigatran 7.5, rivaroxaban 5.0, vitamin K2 (MK-7) 1.5 mg/kg/day
Description: as §2

VSMCs [5] = assay: ATP increase in VSMCs, 24 hours (luminescence); type: cell-based; conditions: 10 μM
Description: This study was performed to determine if vitamin K2 (MK-7) affects ATP generation. ATP is generated via glycolysis in the cytoplasm and via both the Krebs-cycle and oxidative phosphorylation in the mitochondria. ATP generation via glycolysis delivers only 2 ATP, whereas ATP generation in the mitochondria generates some 32 ATP.
as §1, with “To” for “This study was performed to further investigate the origin of ATP production that is influenced by vitamin K2 (MK-7). To”, “24” for “48”, “vehicle,” for “vehicle, CoCl2 (100 μM),”, “minutes” for “minutes,”, “Finally, the” for “Finally,”, “luminescence” for “luminescence.”

VSMCs [6] = assay: Warfarin-induced oxidative stress in VSMCs, warfarin concentration series (DCFDA); type: cell-based; conditions: warfarin 10 to 100 μM, fluorescence over 6 hours
Description: It is known that the level of reactive oxygen species in cells can be measured by measuring the conversion of 2′,7′-dichlorofluorescein diacetate (DCFDA) to the fluorescent dye 2′,7′-dichlorofluorescein (DCF). The fluorescence generated by cells subjected to DCFDA is directly proportional to the amount of oxidized DCFDA to DCF.
In this study, vitamin K metabolism was blocked using the vitamin K-antagonist warfarin. The study was conducted to investigate whether interference with vitamin K metabolism would cause intracellular oxidative stress. To perform the study, VSMCs (10,000 cells/well) were plated in 96-well plates and left to adhere overnight. Next, cells were incubated for 1 hour with 20 μM DCFDA. The medium was then changed to a medium supplemented with different concentrations of warfarin ranging from 10 to 100 μM, and fluorescence intensity was measured over 6 hours. Fluorescence was normalized for number of cells.

[7] = system: human vascular smooth muscle cells (hVSMCs); assay: ATP measurement in hVSMCs with warfarin and/or vitamin K2 (luminescence); type: cell-based; conditions: 24 hours; warfarin 10 or 50 μM, vitamin K2 (MK-7) 10 μM
Description: This study was performed in order to determine the effect of vitamin K2 (MK-7) on warfarin-induced oxidative stress in muscles. To perform this study, human vascular smooth muscle cells (hVSMCs; 5,000 cells/well) were plated in 96-well dark plates and left to adhere overnight. Next, cells were incubated for 24 hours with either vehicle only (as blank control), warfarin (10 or 50 μM), vitamin K2 (MK-7) (10 μM), or a combination of warfarin (50 μM) and vitamin K2 (MK-7) (10 μM). Hoechst was added to correct for cell number (1 μg/mL). Next, ATP was measured using mammalian lysis buffer for 5 minutes after which 50 μL ATP substrate solution was added to the wells and incubated for 10 minutes in a dark environment. Finally, medium was transferred to a white plate to measure luminescence.

| Structure (SMILES) | AUC [3] | OT (time, min) [3] | T10 (time, min) [3] | AUC [4] | OT (time, min) [4] | T10 (time, min) [4] | other results |
| --- | --- | --- | --- | --- | --- | --- | --- |
| [Cl][Co][Cl] [CoCl2, cobalt chloride] | – | – | – | – | – | – | oxidative stress induced by the hypoxia inducer (VSMCs [1]; 50 μM CoCl2): induces increased oxidative stress; ATP production compared to vehicle (VSMCs [2]; CoCl2 100 μM, vitamin K2 (MK-7) 10 μM): decreased ATP production |
| [H]/N=C(/N)c1ccc(NCc2nc3cc(C(=O)N(CCC(=O)O)c4ccccn4)ccc3n2C)cc1 [Dabigatran] | 2039 ± 32.5 | 5.753 ± 0.587 min | 3.386 ± 0.237 min | 1898 ± 80.66 | 8.011 ± 1.317 min | 4.780 ± 0.7073 min | – |
| O=C(NC[C@H]1CN(c2ccc(N3CCOCC3=O)cc2)C(=O)O1)c1ccc(Cl)s1 [Rivaroxaban] | 2011 ± 28.7 | 6.133 ± 0.518 min | 3.732 ± 0.266 min | 1876 ± 91.28 | 8.324 ± 1.578 min | 4.996 ± 0.8216 min | thrombus formation ([3]; anticoagulant alone): inhibited thrombus formation; thrombus formation ([4]; anticoagulant alone): also inhibited thrombus formation |
| COC1=C(OC)C(=O)C(C/C=C(\C)CC/C=C(\C)CC/C=C(\C)CC/C=C(\C)CC/C=C(\C)CC/C=C(\C)CC/C=C(\C)CC/C=C(\C)CC/C=C(\C)CCC=C(C)C)=C(C)C1=O [UQ10] | – | – | – | – | – | – | hypoxia induced oxidative stress (VSMCs [1]; 50 μM CoCl2 for 19 hours, test substance 10 μM, 6 hours): This effect was not found; ATP production compared to the vehicle (VSMCs [5]): only vitamin K2 (MK-7) increased ATP production; ATP levels compared to CoCl2 (VSMCs [2]; 10 μM vs CoCl2 100 μM): significant higher ATP levels |
| CC(=O)CC(c1ccccc1)c1c(O)c2ccccc2oc1=O (stereo not drawn) [warfarin] | – | – | – | – | – | – | intracellular oxidative stress (VSMCs [6]): did cause intracellular oxidative stress; cell ATP / ATP generation [7]: does not affect ATP generation |
